Test results reported in patent publication US8217176B2, “Fused heterocyclic derivative and use thereof” (Takeda Pharmaceutical Company Limited, priority 2008, dated 2012).
Where a name gives a salt, the structure may show the parent alone.

System: NIH-3T3/Gli reporter cells
Test: Evaluation of compound: Shh-N-induced luciferase activity in NIH-3T3/Gli reporter cells (Smo inhibitory action)
Assay type: cell-based
Settings: 48 hr; for inhibition at 1 µM: NIH3T3, 1 μM compound, mouse Shh-N end fragment supernatant, read-out: inhibition rate (%) at 1 μM; for IC50: NIH3T3, mouse Shh-N end fragment supernatant, read-out: IC50 value (compound concentration necessary for achieving 50% of the maximum value of inhibition rate)
Procedure: HEK293 cells were grown in D-MEM medium (Invitrogen) containing 10% fetal bovine serum in a 10 cm dish and pcDNA3.1/mShh-N was introduced into the cells using FuGENE6 (Roche Applied Science). Thereafter, the HEK293 cells were cultured in a carbon dioxide gas incubator at 37° C. for 24 hours, and the medium was exchanged with D-MEM medium (Invitrogen) containing 2% fetal bovine serum. After culturing for 48 hr, a culture supernatant containing recombinant type mouse Shh-N end fragment was obtained by filtration using a filter ([…]).
Using D-MEM (Invitrogen) containing 10% fetal bovine serum, expression plasmid pcDNA3.1 and Gli reporter plasmid (pGL3/δ-cry promoter, 8×Gli binding site) produced by the method of Experimental Example 1 were introduced into NIH-3T3 cells grown in a 10 cm dish by the use of FuGENE6 (Roche Applied Science).
After culture for 24 hr, the cells were recovered, suspended in D-MEM medium containing 10% fetal bovine serum and supplemented with Geneticin (Life Technologies Oriental, Inc.) to a final concentration of 500 μg/ml, diluted to 10^4 cells/ml, plated on a 96 well plate, and cultured in a carbon dioxide gas incubator at 37° C. to give Geneticin resistant transformed cell line.
The obtained transformed cell line was cultured in a 96 well plate, mouse Shh-N end fragment obtained in Experimental Example 3 was added, and NIH-3T3/Gli reporter cell, which is a cell line capable of induction of luciferase expression, was selected.
NIH-3T3/Gli reporter cells cultured in D-MEM (Invitrogen) containing 10% fetal bovine serum were plated in a 96 well white plate at 1×10^4 cells/well, and cultured overnight in a carbon dioxide gas incubator at 37° C. The medium was removed, a compound (50 μl) and culture supernatant of mouse Shh-N end fragment-expressing HEK293 (D-MEM medium containing 2% fetal bovine serum, 50 μl) were added, and the cells were cultured for 48 hr in a carbon dioxide gas incubator at 37° C. Bright-Glo (Promega, 50 μl) was added, and the mixture was stirred, after which luciferase activity was measured by EnVision (PerkinElmer). The inhibition rate was calculated based on the luciferase activity of the control without addition of the compound as 100. The concentration of the compound and the inhibition rate were analyzed by PRISM3.00 (software of GraphPad), based on which the IC50 value (compound concentration necessary for achieving 50% of the maximum value of inhibition rate) of the compound was calculated.

Row | Structure (SMILES) | inhibition at 1 µM | IC50
1 | CCN(CC)CCN(C)C(=O)c1sc2c(c1OC)c(=O)n(Cc1ccc(OC)cc1)c1ccccc21 [Example 48, N-[2-(diethylamino)ethyl]-3-methoxy-5-(4-methoxybenzyl)-N-methyl-4-oxo-4,5-dihydrothieno[3,2-c] quinoline-2-carboxamide hydrochloride] | 10% | ≤ 1 µM
2 | COc1c(C(=O)NC2CCN(C(=O)CO)CC2)n(C)c2c1c(=O)n(CC(=O)c1ccccc1)c1ncccc21 [Example 643, N-[1-(hydroxyacetyl)piperidin-4-yl]-3-methoxy-1-methyl-4-oxo-5-(2-oxo-2-phenylethyl)-4,5-dihydro-1H-pyrrolo[3,2-c][1,8]naphthyridine-2-carboxamide] | 100% | 
3 | COc1c(C(=O)N(C)CCNC(C)C)sc2c1c(=O)n(CC(=O)c1ccccc1)c1ccccc21 [Example 115, 3-methoxy-N-methyl-N-{2-[(1-methylethyl)amino]ethyl}-4-oxo-5-(2-oxo-2-phenylethyl)-4,5-dihydrothieno[3,2-c]quinoline-2-carboxamide hydrochloride] | 100% | ≤ 1 µM
4 | CCc1cc2c(c(OCC(F)(F)F)c(C(=O)NC3CCN(C(=O)CO)CC3)n2C)c(=O)n1CC(=O)c1cccc(Cl)c1 [Example 657, 5-[2-(3-chlorophenyl)-2-oxoethyl]-6-ethyl-N-[1-(hydroxyacetyl)piperidin-4-yl]-1-methyl-4-oxo-3-(2,2,2-trifluoroethoxy)-4,5-dihydro-1H-pyrrolo[3,2-c]pyridine-2-carboxamide] | 100% | 
5 | COc1c(C(=O)N(CCC#N)Cc2cccnc2)sc2c1c(=O)n(CC(=O)c1ccccc1)c1ccccc21 [Example 22, N-(2-cyanoethyl)-3-methoxy-4-oxo-5-(2-oxo-2-phenylethyl)-N-(pyridin-3-ylmethyl)-4,5-dihydrothieno[3,2-c]quinoline-2-carboxamide trifluoroacetate] | 91% | ≤ 1 µM
6 | COc1c(C(=O)NCC2CCCN(CCO)C2)n(C)c2c1c(=O)n(CC(=O)c1ccccc1)c1ccccc21 (stereo not shown) [Example 102, N-{[1-(2-hydroxyethyl)piperidin-3-yl]methyl}-3-methoxy-1-methyl-4-oxo-5-(2-oxo-2-phenylethyl)-4,5-dihydro-1H-pyrrolo[3,2-c]quinoline-2-carboxamide] | 80% | ≤ 1 µM
7 | CCN(CC)CCCC(C)NC(=O)c1sc2c(c1OC)c(=O)n(CC(=O)c1ccccc1)c1ccccc21 (stereo not shown) [Example 13, N-[4-(diethylamino)-1-methylbutyl]-3-methoxy-4-oxo-5-(2-oxo-2-phenylethyl)-4,5-dihydrothieno[3,2-c]quinoline-2-carboxamide trifluoroacetate] | 100% | ≤ 1 µM
8 | COc1c(C(=O)NC2CCN(C(=O)CO)CC2)n(C)c2c1c(=O)n(CC(=O)c1ccccc1)c1ccc(F)cc21 [Example 584, 8-fluoro-N-[1-(hydroxyacetyl)piperidin-4-yl]-3-methoxy-1-methyl-4-oxo-5-(2-oxo-2-phenylethyl)-4,5-dihydro-1H-pyrrolo[3,2-c]quinoline-2-carboxamide] | 100% | 
9 | COc1c(C(=O)NC2CCN(c3ccncn3)CC2)n(C)c2c1c(=O)n(CC(=O)c1ccccc1)c1ccccc21 [Example 583, 3-methoxy-1-methyl-4-oxo-5-(2-oxo-2-phenylethyl)-N-(1-pyrimidin-4-ylpiperidin-4-yl)-4,5-dihydro-1H-pyrrolo[3,2-c]quinoline-2-carboxamide] | 100% | 
10 | CCc1cc2c(c(OC(C)C)c(C(=O)NC3CCN(C(=O)CO)CC3)n2C)c(=O)n1CC(=O)c1ccccc1 [Example 522, 6-ethyl-N-[1-(hydroxyacetyl)piperidin-4-yl]-1-methyl-3-(1-methylethoxy)-4-oxo-5-(2-oxo-2-phenylethyl)-4,5-dihydro-1H-pyrrolo[3,2-c]pyridine-2-carboxamide] | 100% | 
11 | COc1c(C(=O)NCCN2CCCCC2)sc2c1c(=O)n(CC(=O)c1ccccc1)c1ccccc21 [Example 9, 3-methoxy-4-oxo-5-(2-oxo-2-phenylethyl)-N-(2-piperidin-1-ylethyl)-4,5-dihydrothieno[3,2-c]quinoline-2-carboxamide trifluoroacetate] | 100% | ≤ 1 µM
12 | CCOC(=O)Cn1c(=O)c2c(OC)c(C(=O)N(C)CCN(CC)CC)sc2c2ccccc21 [Example 53, ethyl [2-{[2-(diethylamino)ethyl](methyl)carbamoyl}-3-methoxy-4-oxothieno[3,2-c]quinolin-5(4H)-yl]acetate] | 95% | ≤ 1 µM
13 | COc1c(C(=O)NC2CCN(C(=O)CO)CC2)n(C)c2c1c(=O)n(CC(=O)c1ccccc1)c1ccncc21 [Example 644, N-[1-(hydroxyacetyl)piperidin-4-yl]-3-methoxy-1-methyl-4-oxo-5-(2-oxo-2-phenylethyl)-4,5-dihydro-1H-pyrrolo[3,2-c][1,6]naphthyridine-2-carboxamide] | 100% | 
14 | COc1c(C(=O)NC2CCN(c3ccncc3)CC2)n(C)c2c1c(=O)n(CC(=O)c1ccccc1)c1ccccc21 [Example 563, 3-methoxy-1-methyl-4-oxo-5-(2-oxo-2-phenylethyl)-N-(1-pyridin-4-ylpiperidin-4-yl)-4,5-dihydro-1H-pyrrolo[3,2-c]quinoline-2-carboxamide] | 100% | 
15 | CCc1cc2c(c(OC)c(C(=O)NC3CCN(C(=O)CO)CC3)n2C)c(=O)n1CC(=O)c1ccccc1 [Example 131, 6-ethyl-N-[1-(hydroxyacetyl)piperidin-4-yl]-3-methoxy-1-methyl-4-oxo-5-(2-oxo-2-phenylethyl)-4,5-dihydro-1H-pyrrolo[3,2-c]pyridine-2-carboxamide] | 100% | 
16 | CCN(CC)CCN(C)C(=O)c1sc2c(c1OC)c(=O)n(CC(=O)Nc1ccccc1)c1ccccc21 [Example 52, N-[2-(diethylamino)ethyl]-3-methoxy-N-methyl-4-oxo-5-[2-oxo-2-(phenylamino)ethyl]-4,5-dihydrothieno[3,2-c]quinoline-2-carboxamide hydrochloride] | 95% | ≤ 1 µM
17 | CCc1cc2c(c(OCC(F)(F)F)c(C(=O)NC3CCN(C(=O)CO)CC3)n2C)c(=O)n1CC(=O)c1cccc(OC)c1 [Example 656, 6-ethyl-N-[1-(hydroxyacetyl)piperidin-4-yl]-5-[2-(3-methoxyphenyl)-2-oxoethyl]-1-methyl-4-oxo-3-(2,2,2-trifluoroethoxy)-4,5-dihydro-1H-pyrrolo[3,2-c]pyridine-2-carboxamide] | 100% | 
18 | CCOc1c(C(=O)N(C)CCN(CC)CC)sc2c1c(=O)n(CC(=O)c1ccccc1)c1ccccc21 [Example 45, N-[2-(diethylamino)ethyl]-3-ethoxy-N-methyl-4-oxo-5-(2-oxo-2-phenylethyl)-4,5-dihydrothieno[3,2-c]quinoline-2-carboxamide hydrochloride] | 100% | ≤ 1 µM
19 | COc1c(C(=O)NC2CCN(C(=O)CCO)CC2)n(C)c2c1c(=O)n(CC(=O)c1ccccc1)c1ccccc21 [Example 517, N-[1-(3-hydroxypropanoyl)piperidin-4-yl]-3-methoxy-1-methyl-4-oxo-5-(2-oxo-2-phenylethyl)-4,5-dihydro-1H-pyrrolo[3,2-c]quinoline-2-carboxamide] | 100% | 
20 | CCc1cc2c(c(OCC(F)(F)F)c(C(=O)NC3CCN(C(=O)CO)CC3)n2C)c(=O)n1Cc1ccccc1 [Example 654, 5-benzyl-6-ethyl-N-[1-(hydroxyacetyl)piperidin-4-yl]-1-methyl-4-oxo-3-(2,2,2-trifluoroethoxy)-4,5-dihydro-1H-pyrrolo[3,2-c]pyridine-2-carboxamide] | 100% | 
21 | COc1c(C(=O)N[C@H]2CC[C@H](O)CC2)n(C)c2c1c(=O)n(CC(=O)c1ccccc1)c1ccccc21 [Example 118, N-(trans-4-hydroxycyclohexyl)-3-methoxy-1-methyl-4-oxo-5-(2-oxo-2-phenylethyl)-4,5-dihydro-1H-pyrrolo[3,2-c]quinoline-2-carboxamide] | 100% | 
22 | CCc1cc2c(c(OCC(F)(F)F)c(C(=O)NC3CCN(C(=O)CO)CC3)n2C)c(=O)n1CCc1ccccc1 [Example 661, 6-ethyl-N-[1-(hydroxyacetyl)piperidin-4-yl]-1-methyl-4-oxo-5-(2-phenylethyl)-3-(2,2,2-trifluoroethoxy)-4,5-dihydro-1H-pyrrolo[3,2-c]pyridine-2-carboxamide] | 100% | 
